This is an account of results in US10988455B2, “1,2,4-triazine-4-amine derivatives” (Heptares Therapeutics Limited, priority 2010, dated 2021).

The structures appear in SMILES notation.

In experiment [1] the target is human adenosine A2a receptor (Homo sapiens (Human), UniProt P29274). Put plainly: HEK293-hA2a [3H]-ZM241385 binding assay (Test A). The following applies: HEK293 membranes, 1 nM [3H]ZM241385, 25° C., 1 h. The method, then:
(§1) All test compounds were prepared as a stock solution of 10 mM in 100% DMSO.

Experiment [2] addresses human adenosine A1 receptor (Homo sapiens (Human), UniProt P30542). Put plainly: CHO-hA1 [3H]DPCPX binding assay (Test A). To be noted: CHO membranes, 1 nM [3H]DPCPX, 25° C., 1 h; for Ki: read-out: pKi A1 (converted). The method, then:
as §1

Experiment [3] concerns haloperidol-induced catalepsy in rats. Put plainly: Catalepsy reversal test (Test B). The class given is in vivo, Sprague-Dawley rats. To be noted: for reversal of cataleptic behavior in rats pre-treated with haloperidol: dose of 1 mg/kg p.o. How it is done: The dopamine D2 receptor antagonist, haloperidol, induces Parkinsonism in humans and induces motor effects in rats such as catalepsy. There is considerable evidence that adenosine A2A receptor antagonists reverse haloperidol-induced motor effects in preclinical studies. […] The present study determines the ability of haloperidol-induced catalepsy in rats to be reversed by novel A2A receptor antagonists.
Haloperidol (0.82 mg/kg, i.p.; 150 min pre-test time) induces significant cataleptic behaviour in rats (average score 3.1). The effect of selected compounds of the invention (2-10 mg/kg or 0.3-3 mg/kg, p.o.; 120 min pre-test time) on catalepsy was established by administration of said compounds to rats pre-treated with haloperidol as described above.
Details of a similar test may be found in, for example, Hodgson et al., J. Pharmacol. Exp. Ther. 330, 2009.

Usually ED50 stands for the midpoint of the dose-response relation.

Chain of human adenosine A2a receptor (P29274 whole entry): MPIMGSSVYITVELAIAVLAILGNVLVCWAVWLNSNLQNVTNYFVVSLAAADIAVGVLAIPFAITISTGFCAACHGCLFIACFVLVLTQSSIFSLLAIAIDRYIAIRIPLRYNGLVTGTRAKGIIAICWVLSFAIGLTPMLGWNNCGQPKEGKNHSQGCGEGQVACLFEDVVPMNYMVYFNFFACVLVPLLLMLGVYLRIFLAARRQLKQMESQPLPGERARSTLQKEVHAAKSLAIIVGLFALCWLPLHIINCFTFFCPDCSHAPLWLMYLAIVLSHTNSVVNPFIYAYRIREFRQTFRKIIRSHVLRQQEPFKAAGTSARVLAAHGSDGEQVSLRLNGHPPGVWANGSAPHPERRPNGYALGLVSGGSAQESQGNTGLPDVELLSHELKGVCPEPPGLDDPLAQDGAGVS
Chain of human adenosine A1 receptor (P30542 whole entry): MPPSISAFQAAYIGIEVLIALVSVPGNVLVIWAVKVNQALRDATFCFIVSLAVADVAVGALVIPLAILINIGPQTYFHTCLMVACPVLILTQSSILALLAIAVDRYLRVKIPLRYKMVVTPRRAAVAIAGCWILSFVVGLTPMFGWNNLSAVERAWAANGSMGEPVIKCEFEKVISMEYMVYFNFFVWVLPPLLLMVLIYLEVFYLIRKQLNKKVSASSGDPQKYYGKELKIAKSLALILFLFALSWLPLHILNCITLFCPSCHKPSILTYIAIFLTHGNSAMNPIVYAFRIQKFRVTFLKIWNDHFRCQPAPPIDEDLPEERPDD

`Cc1ncccc1Oc1nnc(N)nc1-c1ccccc1` [3(xxi)]: the “pKi A2a” value in experiment [1] was determined as 6.22. Besides, the “pKi A1” value in experiment [2] came out at 8.07.

On to `COc1cc(OC)cc(-c2nnc(N)nc2-c2ccccc2)c1` [1(xxiv), 6-(3,5-Dimethoxyphenyl)-5-phenyl-1,2,4-triazin-3-amine], for which the “pKi A2a” value in experiment [1] was found to be 6.97. In addition, the “pKi A1” value in experiment [2] is given as 8.03.

On to `Nc1nnc(-c2cc(Cl)nc(C(F)F)c2)c(-c2ccccc2)n1` [1(clxxx)], for which the “pKi A2a” value in experiment [1] was 8.90. In addition, the “pKi A1” value in experiment [2] is on record as 7.76.

As to `Cc1cc(-c2nnc(N)nc2-c2ccc(Cl)cc2)cc(C)n1` [1(clix)], the “pKi A2a” value in experiment [1] came out at 7.81. Besides, the “pKi A1” value in experiment [2] turned out to be 7.07. In experiment [3] (120 min pre-test time), the “reversal of cataleptic behavior in rats pre-treated with haloperidol” value (“reversal of cataleptic behavior” for short) is “statistically significant”.

`Nc1nnc(-c2ccc3cc[nH]c3c2)c(-c2ccccc2)n1` [1(xviii), 6-(1H-Indol-6-yl)-5-phenyl-1,2,4-triazin-3-amine]: the “pKi A2a” value in experiment [1] is reported as 6.75. In experiment [2], the “pKi A1” value was 6.91.

For the compound `Cc1cc(Cl)cc(-c2nnc(N)nc2-c2ccccc2)c1` [1(li)], the “pKi A2a” value in experiment [1] came out at 8.66. In experiment [2], the “pKi A1” value is on record as 6.87. For the same compound, the “reversal of cataleptic behavior” value in experiment [3] (120 min pre-test time) was “statistically significant”.

With `[2H]C([2H])([2H])c1cc(-c2nnc(N)nc2-c2ccccc2)cc(C)n1` [5(viii), 6-(2-Methyl-6-d3-methylpyridin-4-yl)-5-phenyl-1,2,4-triazin-3-amine], the “pKi A1” value in experiment [2] worked out at 7.26.

For `Nc1nnc(N2CCOC(CO)C2)c(-c2ccccc2)n1` (stereo not drawn) [2(xxv)], in experiment [1], the “pKi A2a” value is 5.53. Further, the “pKi A1” value in experiment [2] worked out at 7.49.

`Cc1cc(-c2nnc(N)nc2-c2ccccc2)cc(C(F)F)n1` [1(clxxix)]: the “pKi A2a” value in experiment [1] was determined as 8.62. In addition, in experiment [2], the “pKi A1” value was 7.52. Moreover, in experiment [3] (120 min pre-test time), the “reversal of cataleptic behavior” value is on record as “statistically significant”.

Regarding `Cc1cc(-c2nnc(N)nc2-c2ccccc2)cc(C)c1O` [1(xli)], the “pKi A1” value in experiment [2] was determined as 7.83.

Regarding `Cn1nc(C(F)(F)F)cc1Oc1nnc(N)nc1-c1ccccc1` [3(xxiv)], in experiment [1], the “pKi A2a” value is recorded as 7.39. For the same compound, in experiment [2], the “pKi A1” value is 8.46.

Turning to `Nc1nnc(-c2ccc3occc3c2)c(-c2ccccc2)n1` [1(xxxv), 6-(1-benzofuran-5-yl)-5-phenyl-1,2,4-triazin-3-amine], the “pKi A2a” value in experiment [1] is 7.19. For the same compound, the “pKi A1” value in experiment [2] is 8.20.

As for `Cc1cc(-c2nnc(N)nc2-c2ccccc2)cc(C)[n+]1[O-]` [1(ccxiii)], the “pKi A2a” value in experiment [1] was 7.51. Also, the “pKi A1” value in experiment [2] came out at 7.12.

Turning to `Nc1nnc(-c2cc(Cl)cc(Cl)c2)c(-c2ccccn2)n1` [1(cciv)], the “pKi A2a” value in experiment [1] is reported as 7.21. Besides, in experiment [2], the “pKi A1” value amounted to 5.97.

For the compound `CC1(C)CCCN(c2nnc(N)nc2-c2ccccc2)C1` [2(vi), 6-(3,3-Dimethylpiperidin-1-yl)-5-phenyl-1,2,4-triazin-3-amine], in experiment [1], the “pKi A2a” value amounted to 7.39. For the same compound, the Ki in experiment [2] was over 10 µM.

In the case of `Cc1csc(Nc2nnc(N)nc2-c2ccccc2)n1` [2(xxii)], the “pKi A2a” value in experiment [1] was 5.07. Also, in experiment [2], the “pKi A1” value was found to be 6.71.

In the case of `CC1(C)C=C(c2nnc(N)nc2-c2ccccc2)CC(C)(C)O1` [1(lxxx)], the “pKi A2a” value in experiment [1] is on record as 6.61. In addition, the “pKi A1” value in experiment [2] is on record as 6.01.

For the compound `Nc1nnc(-c2ccc3ccccc3c2)c(-c2ccccc2)n1` [1(lxxii)], in experiment [1], the “pKi A2a” value was found to be 6.99. In addition, the “pKi A1” value in experiment [2] was found to be 8.52.

Turning to `CC(=O)Nc1cc(-c2nnc(N)nc2-c2ccccc2)ccc1O` [5(vii), N-[5-(3-Amino-5-phenyl-1,2,4-triazin-6-yl)-2-hydroxyphenyl]acetamide], in experiment [1], the “pKi A2a” value was determined as 6.73. Further, the “pKi A1” value in experiment [2] is reported as 8.69.

Consider `Nc1nnc(-c2cccc(C(F)(F)F)c2)c(-c2ccccc2)n1` [1(ix), 5-Phenyl-6-[3-(trifluoromethyl)phenyl]-1,2,4-triazin-3-amine], for which the “pKi A1” value in experiment [2] came out at 7.81.

`Nc1nnc(-c2cccc(Cl)c2)c(-c2ccccc2)n1` [Example 1(vi), 6-(3-Chlorophenyl)-5-phenyl-1,2,4-triazin-3-amine]: in experiment [3] (Rattus norvegicus, p.o., 120 min pre-test time, haloperidol 0.82 mg/kg i.p., read-out: ED50, reversal of cataleptic behaviour in rats pre-treated with haloperidol), the ED50 amounted to 9.8 mg/kg.

`Cc1cc(-c2nnc(N)nc2-c2cc(F)cc(F)c2)cc(C)n1` [1(cliv)]: the “pKi A1” value in experiment [2] came out at 6.77. The “reversal of cataleptic behavior” value in experiment [3] (120 min pre-test time) was “statistically significant”.

For `Cc1cc(-c2nnc(N)nc2-c2ccc(F)cc2)cc(N2CCC2)n1` [5(xi), 6-[2-(azetidin-1-yl)-6-methylpyridin-4-yl]-5-(4-fluorophenyl)-1,2,4-triazin-3-amine], the “pKi A2a” value in experiment [1] is given as 7.76. In addition, in experiment [2], the “pKi A1” value was 6.90.

For `Nc1nnc(-c2ccnc(Cl)c2)c(-c2ccccc2)n1` [1(xliii)], in experiment [1], the “pKi A2a” value was found to be 7.74. In experiment [2], the “pKi A1” value was 8.54. In addition, in experiment [3] (p.o., 120 min pre-test time, haloperidol 0.82 mg/kg i.p.), the “ED50, reversal of cataleptic behaviour in rats pre-treated with haloperidol” value was determined as 0.27 mg/kg.

For the compound `CN(C)c1cc(-c2nnc(N)nc2-c2ccccc2)ccn1` [1(ccxi)], the “pKi A2a” value in experiment [1] amounted to 7.71. Also, the “pKi A1” value in experiment [2] came out at 8.74.

Take `CC1CN(c2nnc(N)nc2-c2ccccc2)CC(C)O1` (stereo not drawn) [2(iv), 6-(2,6-Dimethylmorpholin-4-yl)-5-phenyl-1,2,4-triazin-3-amine]: the “pKi A2a” value in experiment [1] came out at 7.79. Moreover, the Ki in experiment [2] was over 10 µM.

Regarding `Nc1nnc(Oc2ccccc2)c(-c2ccccc2)n1` [3(i), 6-Phenoxy-5-phenyl-1,2,4-triazin-3-amine], the “pKi A2a” value in experiment [1] turned out to be 7.17. The Ki in experiment [2] is over 10 µM.

For `Cc1cn(-c2nnc(N)nc2-c2ccccc2)cc(C)c1=O` [5(ix), 1-(3-Amino-5-phenyl-1,2,4-triazin-6-yl)-3,5-dimethylpyridin-4(1H)-one], in experiment [1], the “pKi A2a” value was determined as 7.77. Also, the “pKi A1” value in experiment [2] amounted to 7.62.

Turning to `Nc1nnc(-c2ccc(F)c(Cl)c2)c(-c2ccccc2)n1` [1(xv), 6-(3-Chloro-4-fluorophenyl)-5-phenyl-1,2,4-triazin-3-amine], the “pKi A2a” value in experiment [1] was 7.11. Besides, in experiment [2], the “pKi A1” value turned out to be 8.45.

For `Nc1nnc(-c2cc(Cl)nc(CF)c2)c(-c2ccccc2)n1` [1(clxxxi)], in experiment [1], the “pKi A2a” value is given as 8.71. The “pKi A1” value in experiment [2] turned out to be 7.17.

For `Nc1nnc(-c2ccnc(C3CC3)c2)c(-c2ccccc2)n1` [1(lxxix)], the “pKi A2a” value in experiment [1] was 7.45. In addition, the “pKi A1” value in experiment [2] came to 9.35.

For `Cc1cc(-c2nnc(N)nc2-c2ccc(F)cc2)cc(C(F)(F)F)n1` [1(cxciii)], in experiment [2], the “pKi A1” value came to 6.93. In addition, the “reversal of cataleptic behavior” value in experiment [3] (120 min pre-test time) is recorded as “statistically significant”.

As for `Nc1nnc(-c2cnn(Cc3ccccc3)c2)c(-c2ccccc2)n1` [1(cxxxiv)], the “pKi A2a” value in experiment [1] is 5.62. The “pKi A1” value in experiment [2] worked out at 7.62.

`O=C(CCCN1CCC(O)(c2ccc(Cl)cc2)CC1)c1ccc(F)cc1` [Haloperidol, haloperidol, reference compound]: in experiment [3] (haloperidol 0.82 mg/kg i.p., 150 min pre-test time), the “catalepsy average score (maximum score of 4)” value is reported as 3.1.

For the compound `Cc1ccc(Sc2nnc(N)nc2-c2ccccc2)cc1` [3(xxxii)], the “pKi A2a” value in experiment [1] was 5.82. For the same compound, the “pKi A1” value in experiment [2] was determined as 7.00.

`Nc1nnc(-c2cc(Cl)cc(C(F)(F)F)c2)c(-c2ncccn2)n1` [1(ccxviii)]: the “pKi A2a” value in experiment [1] is reported as 6.58. The “pKi A1” value in experiment [2] stood at 5.25.

Turning to `Nc1nnc(-c2cc(Cl)cc(C3CC3)c2)c(-c2ccccc2)n1` [4(ii), 6-(3-Chloro-5-cyclopropylphenyl)-5-phenyl-1,2,4-triazin-3-amine], the Ki is 0.0129 µM in experiment [1] (read-out: pKi A2a (converted)) and 0.0372 µM in experiment [2].

Consider `CC1CCCN(c2nnc(N)nc2-c2ccccc2)C1` (stereo not drawn) [2(iii), 6-(3-Methylpiperidin-1-yl)-5-phenyl-1,2,4-triazin-3-amine], for which, in experiment [1], the “pKi A2a” value worked out at 7.31. Moreover, the “pKi A1” value in experiment [2] stood at 5.37.

With `Nc1nnc(-c2cc(Cl)cc(Cl)c2)c(-c2ccccc2)n1` [1(xiii), 6-(3,5-Dichlorophenyl)-5-phenyl-1,2,4-triazin-3-amine], in experiment [3] (120 min pre-test time), the “reversal of cataleptic behavior” value is “statistically significant”.

As for `Cc1cc(-c2nnc(N)nc2-c2ccccc2)cc(C(F)(F)F)n1` [Example 1(ccix), 6-[2-methyl-6-(trifluoromethyl)pyridin-4-yl]-5-phenyl-1,2,4-triazin-3-amine], the “pKi A1” value in experiment [2] turned out to be 7.60. The “reversal of cataleptic behavior” value in experiment [3] (120 min pre-test time) was “statistically significant”.

With `Nc1nnc(-n2ccc(=O)cc2)c(-c2ccccc2)n1` [3(xvi)], the “pKi A2a” value in experiment [1] was found to be 7.41. Further, the “pKi A1” value in experiment [2] came to 7.15.

On to `Cc1cc(-c2nnc(N)nc2-c2ccccc2F)cc(Cl)n1` [1(clxxvi)], for which the “pKi A2a” value in experiment [1] came to 8.03. For the same compound, the “pKi A1” value in experiment [2] is on record as 6.93.

Turning to `Nc1nnc(Oc2cccc(C(F)(F)F)c2)c(-c2ccccc2)n1` [3(v), 5-Phenyl-6-[3-(trifluoromethyl)phenoxy]-1,2,4-triazin-3-amine], in experiment [1], the “pKi A2a” value was found to be 5.96.

Consider `Cc1cc(-c2nnc(N)nc2-c2ccc(F)cc2)cc(Cl)n1` [Example 1(xcv), 6-(2-chloro-6-methylpyridin-4-yl)-5-(4-fluorophenyl)-1,2,4-triazin-3-amine], for which the “reversal of cataleptic behavior” value in experiment [3] (120 min pre-test time) is listed as “statistically significant”.
